The source of these data is US4737361A, “Alpha adrenergic amine of substantial alpha2 adrenergic amine activity as an antiperspirant” (Bristol-Myers Company, priority 1986, dated 1988).

Structures can show the parent of a compound that is named as a salt.

In assay [1] the test system is single equine sweat glands. As to conditions: cited from earlier work.
The test system of another assay is sweat glands. In words: rat foot pad sweat inhibition (starch-iodine count of secreting sweat glands, test foot vs control foot). Type of assay: in vivo, Sprague Dawley rats. The note with it: for Approx. % Inhibition: topical, rat hind foot pads, 40 minutes post treatment. On the procedure: A series of test solutions were prepared by dissolving various quantities of xylometazoline HCl, oxymetazoline HCl and naphazoline HCl in freshly prepared distilled water. In the case of xylometazoline HCl 0.003%, 0.03%, 0.15% and 0.3% solutions were prepared. In the cases for oxymetazoline HCl and naphazoline HCl 0.15% solutions were made. The control material is distilled water.
A. Prior to testing, rats are routinely acclimated to the laboratory environment for seven days and gross observations are made to ensure good health of animals to be tested.
B. Sprague Dawley rats, male and/or female (175-250 gm) are selected for test and identified by cage label and ear tag number.
C. A minimum of 6 animals is used in testing each solution.
A. Test room should be maintained at a temperature of 78°±2° F.
1. Test animals are injected intramuscularly with Innovar Vet™ (0.01 ml/100 gm body wt.) by use of a 0.25 ml tuberculin syringe with a 26 or 27 gauge needle. Animals are then returned to their cages.
3. Both hind feet are then swabbed with 70% ethyl alcohol (ETOH) to remove any debris.
4. The four interdigital palmar foot pads on one hind foot are then treated with test material while the opposite hind foot is treated with the control material.
5. After treatment of all animals, an iodine solution (2% in 95% ETOH wt./vol.) is applied to both hind feet.
6. 30 minutes post treatment the hind feet are then painted with a suspension of starch and castor oil (50/50, wt./vol.).
7. 40 minutes post treatment Polaroid photos (3X, using Polaroid Type Film 669) are taken of both hind feet in the same frame.
1. The number of activated sweat glands in each of the four palmar foot pads is quantitated by manually counting the black dots observed in the photo of the control and test treated feet.
2. The ratio of the total number of secreting sweat glands on the control foot vs the total number of secreting sweat glands on the test foot is used to estimate the percent inhibition of sweat in the rat foot pad.
3. The following formula is used to calculate activity. [formula]

Regarding `CNC[C@H](O)c1cccc(O)c1` [phenylephrine], in assay [1], the sweating responses entry was “moderate sweating responses”.

Regarding `c1ccc2c(CC3=NCCN3)cccc2c1` [Naphazoline HCl, naphazoline HCl], the “Approx. % Inhibition” value with sweat glands (Concentration Tested 0.15%) was about 95%.

Regarding `Cc1cc(C(C)(C)C)cc(C)c1CC1=NCCN1` [Xylometazoline HCl, xylometazoline HCl], the “dose response of percent inhibition” value with sweat glands (0.003-0.3% solutions) is on record as “the percent inhibition increased with the increase in concentration of the test drug”. For the same molecule, the “Approx. % Inhibition” value with sweat glands (Concentration Tested 0.003%) is recorded as about 30%; in the assay on sweat glands (Concentration Tested 0.03%) it was about 50%; in the assay on sweat glands (Concentration Tested 0.15%) it was about 80%; with sweat glands (Concentration Tested 0.3%), about 88%.

Consider `COc1ccc(OC)c(C(O)C(C)N)c1` (stereo not drawn) [methoxamine], for which the sweating responses entry in assay [1] is “moderate sweating responses”.

Turning to `Cc1cc(C(C)(C)C)c(O)c(C)c1CC1=NCCN1` [Oxymetazoline HCl, oxymetazoline HCl], the “Approx. % Inhibition” value with sweat glands (Concentration Tested 0.15%) is reported as about 92%.
